Measured values reported in ChEMBL document CHEMBL3132854, “Synthesis and anticancer activity evaluation of resveratrolchalcone conjugates” (2014).

Tests used:
HL-60(TB) = assay: Growth inhibition of human HL-60(TB) cells assessed as cell growth at 10 uM by sulforhodamine B assay relative to control; type: functional; settings: values are per cent of control
CCRF-CEM = assay: Growth inhibition of human CCRF-CEM cells assessed as cell growth at 10 uM by sulforhodamine B assay relative to control; type: functional; settings: values are per cent of control
SR = assay: Growth inhibition of human SR cells assessed as cell growth at 10 uM by sulforhodamine B assay relative to control; values are per cent of control
M14 = assay: Growth inhibition of human M14 cells assessed as cell growth at 10 uM by sulforhodamine B assay relative to control; values are per cent of control
KM12 = assay: Growth inhibition of human KM12 cells assessed as cell growth at 10 uM by sulforhodamine B assay relative to control; values are per cent of control
SN12C = assay: Growth inhibition of human SN12C cells assessed as cell growth at 10 uM by sulforhodamine B assay relative to control; values are per cent of control
786-0 = assay: Growth inhibition of human 786-0 cells assessed as cell growth at 10 uM by sulforhodamine B assay relative to control; values are per cent of control
SNB-75 [1] = assay: Growth inhibition of human SNB75 cells assessed as cell growth at 10 uM by sulforhodamine B assay relative to control; values are per cent of control
[2] = Growth inhibition of human SF539 cells assessed as cell growth at 10 uM by sulforhodamine B assay relative to control; values are per cent of control; settings: SF-539
SF-295 = assay: Growth inhibition of human SF295 cells assessed as cell growth at 10 uM by sulforhodamine B assay relative to control; values are per cent of control
SF-268 = assay: Growth inhibition of human SF268 cells assessed as cell growth at 10 uM by sulforhodamine B assay relative to control; values are per cent of control
HCT-15 = assay: Growth inhibition of human HCT15 cells assessed as cell growth at 10 uM by sulforhodamine B assay relative to control; values are per cent of control
HOP-62 = assay: Growth inhibition of human HOP62 cells assessed as cell growth at 10 uM by sulforhodamine B assay relative to control; values are per cent of control
CAKI-1 = assay: Growth inhibition of human CAKI-1 cells assessed as cell growth at 10 uM by sulforhodamine B assay relative to control; values are per cent of control
[3] = Growth inhibition of human OVCAR5 cells assessed as cell growth at 10 uM by sulforhodamine B assay relative to control; values are per cent of control; settings: OVCAR-5
[4] = Growth inhibition of human OVCAR4 cells assessed as cell growth at 10 uM by sulforhodamine B assay relative to control; values are per cent of control; settings: OVCAR-4
HCT-116 = assay: Growth inhibition of human HCT116 cells assessed as cell growth at 10 uM by sulforhodamine B assay relative to control; values are per cent of control
[5] = Growth inhibition of human UACC257 cells assessed as cell growth at 10 uM by sulforhodamine B assay relative to control; values are per cent of control; settings: UACC-257
SK-MEL-5 = assay: Growth inhibition of human SK-MEL-5 cells assessed as cell growth at 10 uM by sulforhodamine B assay relative to control; values are per cent of control
Malme-3M = assay: Growth inhibition of human MALME-3M cells assessed as cell growth at 10 uM by sulforhodamine B assay relative to control; values are per cent of control
NCI-H522 = assay: Growth inhibition of human NCI-H522 cells assessed as cell growth at 10 uM by sulforhodamine B assay relative to control; values are per cent of control
A549 = assay: Growth inhibition of human A549/ATCC cells assessed as cell growth at 10 uM by sulforhodamine B assay relative to control; values are per cent of control
MDA-MB-468 = assay: Growth inhibition of human MDA-MB-468 cells assessed as cell growth at 10 uM by sulforhodamine B assay relative to control; values are per cent of control
MDA-MB-231 = assay: Growth inhibition of human MDA-MB-231 cells assessed as cell growth at 10 uM by sulforhodamine B assay relative to control; values are per cent of control
[6] = Growth inhibition of human NCI-ADR-RES cells assessed as cell growth at 10 uM by sulforhodamine B assay relative to control; values are per cent of control
IGROV-1 = assay: Growth inhibition of human IGROV1 cells assessed as cell growth at 10 uM by sulforhodamine B assay relative to control; values are per cent of control
MCF7 = assay: Cytotoxicity against human MCF7 cells by sulforhodamine B assay; type: functional
[7] = Cytotoxicity against human UO31 cells by sulforhodamine B assay; type: functional
[8] = Cytotoxicity against human OVCAR4 cells by sulforhodamine B assay; type: functional
SNB-75 [9] = assay: Cytotoxicity against human SNB75 cells by sulforhodamine B assay; type: functional
NCI-H322M = assay: Cytotoxicity against human NCI-H322M cells by sulforhodamine B assay; type: functional
MOLT-4 = assay: Cytotoxicity against human MOLT4 cells by sulforhodamine B assay; type: functional
T47D = assay: Cytotoxicity against human T47D cells by sulforhodamine B assay; type: functional
[10] = read-out: LC50 (the source's name)

`COc1ccc(/C=C/c2ccc(/C=C/C(=O)c3ccc(Cl)cc3)cc2)cc1` showed a growth, % of control at 10 µM (HL-60(TB)) of 92.2%, a growth, % of control at 10 µM (CCRF-CEM) of 97.2% and a growth, % of control at 10 µM (SR) of 82.4%. It also gave a growth, % of control at 10 µM (M14) of 104%, a growth, % of control at 10 µM (KM12) of 96.3% and a growth, % of control at 10 µM (SN12C) of 99.8%. For the same molecule, the growth, % of control at 10 µM (786-0) was 91%, the growth, % of control at 10 µM (SNB-75 [1]) was 100% and the growth, % of control at 10 µM [2] was 109%. It also gave a growth, % of control at 10 µM (SF-295) of 87%, a growth, % of control at 10 µM (SF-268) of 96.5% and a growth, % of control at 10 µM (HCT-15) of 101%. The growth, % of control at 10 µM (HOP-62) was 105%, the growth, % of control at 10 µM (CAKI-1) was 92.4% and the growth, % of control at 10 µM [3] was 102%. For the same molecule, the growth, % of control at 10 µM [4] was 102%, the growth, % of control at 10 µM (HCT-116) was 93.3% and the growth, % of control at 10 µM [5] was 101%. It also gave a growth, % of control at 10 µM (SK-MEL-5) of 107%, a growth, % of control at 10 µM (Malme-3M) of 103% and a growth, % of control at 10 µM (NCI-H522) of 106%. It also gave a growth, % of control at 10 µM (A549) of 91.8%, a growth, % of control at 10 µM (MDA-MB-468) of 113% and a growth, % of control at 10 µM (MDA-MB-231) of 117%. For the same molecule, the growth, % of control at 10 µM [6] was 109%.

With `COc1ccc(C(=O)/C=C/c2ccc(/C=C/c3ccc(F)cc3)cc2)cc1` the growth, % of control at 10 µM (HL-60(TB)) was 101%, the growth, % of control at 10 µM (CCRF-CEM) was 104% and the growth, % of control at 10 µM (SR) was 91%. The growth, % of control at 10 µM (M14) was 95.2%, the growth, % of control at 10 µM (KM12) was 104% and the growth, % of control at 10 µM (SN12C) was 102%. It also gave a growth, % of control at 10 µM (786-0) of 95.3%, a growth, % of control at 10 µM (SNB-75 [1]) of 104% and a growth, % of control at 10 µM [2] of 108%. It also gave a growth, % of control at 10 µM (SF-295) of 94.9%, a growth, % of control at 10 µM (SF-268) of 113% and a growth, % of control at 10 µM (HCT-15) of 102%. The growth, % of control at 10 µM (HOP-62) was 120%, the growth, % of control at 10 µM (CAKI-1) was 91.2% and the growth, % of control at 10 µM [3] was 102%. The growth, % of control at 10 µM [4] was 115%, the growth, % of control at 10 µM (IGROV-1) was 112% and the growth, % of control at 10 µM (HCT-116) was 95.8%. The growth, % of control at 10 µM [5] was 101%, the growth, % of control at 10 µM (SK-MEL-5) was 104% and the growth, % of control at 10 µM (Malme-3M) was 99.9%. The growth, % of control at 10 µM (NCI-H522) was 84%, the growth, % of control at 10 µM (A549) was 94.9% and the growth, % of control at 10 µM (MDA-MB-468) was 112%. The growth, % of control at 10 µM (MDA-MB-231) was 116% and the growth, % of control at 10 µM [6] was 96.1%.

For `COc1ccc(C(=O)/C=C/c2ccc(/C=C/c3ccc(Cl)cc3)cc2)cc1`, the growth, % of control at 10 µM (HL-60(TB)) was 94.4%, the growth, % of control at 10 µM (CCRF-CEM) was 97.7% and the growth, % of control at 10 µM (SR) was 85.6%. For the same molecule, the growth, % of control at 10 µM (M14) was 101%, the growth, % of control at 10 µM (KM12) was 100% and the growth, % of control at 10 µM (SN12C) was 97.4%. The growth, % of control at 10 µM (786-0) was 94%, the growth, % of control at 10 µM (SNB-75 [1]) was 97.2% and the growth, % of control at 10 µM [2] was 99.9%. For the same molecule, the growth, % of control at 10 µM (SF-295) was 96.5%, the growth, % of control at 10 µM (SF-268) was 96.5% and the growth, % of control at 10 µM (HCT-15) was 90.1%. It also gave a growth, % of control at 10 µM (HOP-62) of 101%, a growth, % of control at 10 µM (CAKI-1) of 93.9% and a growth, % of control at 10 µM [3] of 96.6%. It also gave a growth, % of control at 10 µM [4] of 107%, a growth, % of control at 10 µM (IGROV-1) of 95.7% and a growth, % of control at 10 µM (HCT-116) of 97.5%. The growth, % of control at 10 µM [5] was 100%, the growth, % of control at 10 µM (SK-MEL-5) was 106% and the growth, % of control at 10 µM (Malme-3M) was 87.4%. It also gave a growth, % of control at 10 µM (NCI-H522) of 125%, a growth, % of control at 10 µM (A549) of 100% and a growth, % of control at 10 µM (MDA-MB-468) of 110%. The growth, % of control at 10 µM (MDA-MB-231) was 103% and the growth, % of control at 10 µM [6] was 111%.

`COc1ccc(C(=O)/C=C/c2ccc(/C=C/c3cc(OC)c(OC)c(OC)c3)cc2)cc1` showed a GI50 (MCF7) of 2.18 µM, a TGI (MCF7) of 36.6 µM and a CC50 (MCF7; [10]) of over 100 µM. The GI50 ([7]; UO-31) was 4.64 µM, the TGI ([7]; UO-31) was over 100 µM and the CC50 ([7]; UO-31, read-out: LC50 (the source's name)) was over 100 µM. The GI50 ([8]; OVCAR-4) was 6.31 µM, the TGI ([8]; OVCAR-4) was 47.3 µM and the CC50 ([8]; OVCAR-4, read-out: LC50 (the source's name)) was over 100 µM. It also gave a GI50 (SNB-75 [9]) of 5.5 µM, a TGI (SNB-75 [9]) of 47.7 µM and a CC50 (SNB-75 [9]; [10]) of over 100 µM. It also gave a GI50 (NCI-H322M) of 1.98 µM, a TGI (NCI-H322M) of over 100 µM and a CC50 (NCI-H322M; [10]) of over 100 µM. It also gave a GI50 (MOLT-4) of 3.49 µM, a TGI (MOLT-4) of over 100 µM and a CC50 (MOLT-4; [10]) of over 100 µM. For the same molecule, the growth, % of control at 10 µM (HL-60(TB)) was 21.5%, the growth, % of control at 10 µM (CCRF-CEM) was 19.6% and the GI50 (T47D) was 6.19 µM. For the same molecule, the TGI (T47D) was over 100 µM, the CC50 (T47D; [10]) was over 100 µM and the growth, % of control at 10 µM (SR) was 9.61%. For the same molecule, the growth, % of control at 10 µM (M14) was 67%, the growth, % of control at 10 µM (KM12) was 29.2% and the growth, % of control at 10 µM (SN12C) was 56.7%. It also gave a growth, % of control at 10 µM (786-0) of 67.8%, a growth, % of control at 10 µM (SNB-75 [1]) of 59.8% and a growth, % of control at 10 µM [2] of 86.3%. The growth, % of control at 10 µM (SF-295) was 57.9%, the growth, % of control at 10 µM (SF-268) was 66.2% and the growth, % of control at 10 µM (HCT-15) was 33.6%. For the same molecule, the growth, % of control at 10 µM (HOP-62) was 71%, the growth, % of control at 10 µM (CAKI-1) was 74.4% and the growth, % of control at 10 µM [3] was 117%. For the same molecule, the growth, % of control at 10 µM [4] was 65.7%, the growth, % of control at 10 µM (IGROV-1) was 6.66% and the growth, % of control at 10 µM (HCT-116) was 17.5%. The growth, % of control at 10 µM [5] was 72.5%, the growth, % of control at 10 µM (SK-MEL-5) was 62% and the growth, % of control at 10 µM (Malme-3M) was 66.8%. For the same molecule, the growth, % of control at 10 µM (NCI-H522) was 5.55%, the growth, % of control at 10 µM (A549) was 36.4% and the growth, % of control at 10 µM (MDA-MB-468) was 51.9%. For the same molecule, the growth, % of control at 10 µM (MDA-MB-231) was 76.8% and the growth, % of control at 10 µM [6] was 50%.
